According to patent US20120071536A1, “N-[(2-AZABICYCLO[2.1.1]HEX-1-YL)-ARYL-METHYL]-BENZAMIDE DERIVATIVES, PREPARATION THEREOF, AND THERAPEUTIC USE THEREOF” (SANOFI, priority 2009, published 2012):
Where a name gives a salt, the structure may show the parent alone.

| Compound | melting point [°C] |
| --- | --- |
| O=C(NC(c1ccc(F)cc1)C12CC(CN1)C2)c1cccc(C(F)(F)F)c1Cl (racemic) [Compound 16, N-[(2-Azabicyclo[2.1.1]hex-1-yl)(4-fluorophenyl)methyl]-2-chloro-3-(trifluoromethyl)-benzamide] | 172.5 to 173 |
| Cc1cccc(C(NC(=O)c2c(Cl)ccc(C(F)(F)F)c2Cl)C23CC(CN2)C3)c1 (racemic) (as salt: HCl) [Compound 29, N-[(2-Azabicyclo[2.1.1]hex-1-yl)(m-tolyl)methyl]-2,6-dichloro-3-(trifluoromethyl)-benzamide] | 146 to 147 |
| CCN1CC2CC1(C(NC(=O)c1c(C)cccc1C)c1ccccc1)C2 (racemic) (as salt: HCl) [Compound 30, N-[(2-Ethyl-2-azabicyclo[2.1.1]hex-1-yl)(phenyl)methyl]-2,6-dimethylbenzamide] | 212 to 214 |
| O=C(NC(c1ccccc1)C12CC(CN1CC1CC1)C2)c1cccc(C(F)(F)F)c1Cl (racemic) (as salt: HCl) [Compound 25, 2-Chloro-N-[(2-cyclopropylmethyl-2-azabicyclo[2.1.1]hex-1-yl)(phenyl)methyl]-3-(trifluoromethyl)benzamide] | 240.5 to 241.5 |
| Cc1cccc(C)c1C(=O)NC(c1ccccc1)C12CC(CN1)C2 (racemic) (as salt: HCl) [Compound 27, N-[(2-Azabicyclo[2.1.1]hex-1-yl)(phenyl)methyl]-2,6-dimethylbenzamide] | 273.5 to 274.5 |
| Cc1c(C(=O)NC(c2ccccc2)C23CC(CN2)C3)cccc1C(F)(F)F (racemic) [Compound 7, N-[(2-Azabicyclo[2.1.1]hex-1-yl)(phenyl)methyl]-2-methyl-3-(trifluoromethyl)-benzamide] | 146 to 147 |
| Nc1ccc(C(NC(=O)c2cccc(C(F)(F)F)c2Cl)C23CC(CN2)C3)cc1 (racemic) (as salt: HCl) [Compound 1, N-[(4-Aminophenyl)(2-azabicyclo[2.1.1]hex-1-yl)methyl]-2-chloro-3-(trifluoromethyl)-benzamide] | 195 to 197 |
| O=C(NC(c1cccc(C(F)(F)F)c1)C12CC(CN1)C2)c1cccc(C(F)(F)F)c1Cl (racemic) (as salt: HCl) [Compound 4, N-[(2-Azabicyclo[2.1.1]hex-1-yl)[3-(trifluoromethyl)phenyl]methyl]-2-chloro-3-(trifluoromethyl)benzamide] | 214 to 217 |
| O=C(NC(c1ccccc1)C12CC(CN1)C2)c1cccc(C(F)(F)F)c1Cl (single isomer, unassigned; (+)) (as salt: HCl) [Compound 14, (+)-N-[(2-Azabicyclo[2.1.1]hex-1-yl)(phenyl)methyl]-2-chloro-3-(trifluoromethyl)-benzamide] | 160 to 170 |
| O=C(NC(c1ccc2ccccc2c1)C12CC(CN1)C2)c1cccc(C(F)(F)F)c1Cl (racemic) (as salt: HCl) [Compound 17, N-[(2-Azabicyclo[2.1.1]hex-1-yl)(naphth-2-yl)methyl]-2-chloro-3-(trifluoromethyl)-benzamide] | 135 to 170 |
| Cc1ccc(F)c(C(=O)NC(c2ccccc2)C23CC(CN2)C3)c1Cl (racemic) [Compound 10, N-[(2-Azabicyclo[2.1.1]hex-1-yl)(phenyl)methyl]-2-chloro-6-fluoro-3-methylbenzamide] | 123 to 124 |
| COc1cccc(C(NC(=O)c2cccc(C(F)(F)F)c2Cl)C23CC(CN2)C3)c1 (racemic) (as salt: HCl) [Compound 3, N-[(2-Azabicyclo[2.1.1]hex-1-yl)(3-methoxyphenyl)methyl]-2-chloro-3-(trifluoro-methyl)benzamide] | 143 to 144 |
| CCc1ccccc1C(=O)NC(c1ccccc1)C12CC(CN1)C2 (racemic) (as salt: HCl) [Compound 28, N-[(2-Azabicyclo[2.1.1]hex-1-yl)(phenyl)methyl]-2-ethylbenzamide] | 264 to 265 |
| Cl.O=C(NC(c1ccccc1)C12CC(CN1)C2)c1cc(C(F)(F)F)ccc1Cl (racemic) | 162.5 to 163.5 |
| Cc1cccc(C(=O)NC(c2ccccc2)C23CC(CN2)C3)c1Cl (racemic) [Compound 12, N-[(2-Azabicyclo[2.1.1]hex-1-yl)(phenyl)methyl]-2-chloro-3-methylbenzamide] | 139.5 to 140.5 |

More lines, now with the values ahead:

| melting point [°C] | Compound |
| --- | --- |
| 244 to 245.5 | O=C(NC(c1ccccc1)C12CC(CN1Cc1ccccc1)C2)c1cccc(C(F)(F)F)c1Cl (racemic) (as salt: HCl) [Compound 33, N-[(2-Benzyl-2-azabicyclo[2.1.1]hex-1-yl)(phenyl)methyl]-2-chloro-3-(trifluoromethyl)-benzamide] |
| 80.5 to 81.5 | O=C(NC(c1ccccc1)C12CC(CN1)C2)c1c(Cl)ccc(C(F)(F)F)c1Cl (racemic) [Compound 8, N-[(2-Azabicyclo[2.1.1]hex-1-yl)(phenyl)methyl]-2,6-dichloro-3-(trifluoromethyl)-benzamide] |
| 152 to 155 | CCN1CC2CC1(C(NC(=O)c1cccc(C(F)(F)F)c1Cl)c1ccccc1)C2.Cl (racemic) |
| 140 to 150 | O=C(NC(c1ccccc1)C12CC(CN1)C2)c1cccc(C(F)(F)F)c1Cl (single isomer, unassigned; (-)) (as salt: HCl) [Compound 13, (−)N-[(2-Azabicyclo[2.1.1]hex-1-yl)(phenyl)methyl]-2-chloro-3-(trifluoromethyl)-benzamide] |
| 159.5 to 160.5 | Cc1cccc(C(NC(=O)c2cccc(C(F)(F)F)c2Cl)C23CC(CN2)C3)c1 (racemic) (as salt: HCl) [Compound 2, N-[(2-Azabicyclo[2.1.1]hex-1-yl)(m-tolyl)methyl]-2-chloro-3-(trifluoromethyl)benzamide] |
| 153 to 154 | CCCN1CC2CC1(C(NC(=O)c1cc(Br)c(Cl)cc1N)c1ccccc1)C2 (racemic) (as salt: HCl) [Compound 21, 2-Amino-5-bromo-4-chloro-N-[(phenyl)(2-propyl-2-azabicyclo[2.1.1]hex-1-yl)methyl]-benzamide] |
| 257 to 259 | CCN1CC2CC1(C(NC(=O)c1cccc(C(F)(F)F)c1Cl)c1ccccc1)C2 (single isomer, unassigned; (+)) (as salt: HCl) [Compound 26, (+)-2-Chloro-N-[(2-ethyl-2-azabicyclo[2.1.1]hex-1-yl)(phenyl)methyl]-3-(trifluoromethyl)benzamide] |
| 187 to 188 | O=C(NC(c1cccc(O)c1)C12CC(CN1)C2)c1cccc(C(F)(F)F)c1Cl (racemic) (as salt: HCl) [Compound 24, N-[(2-Azabicyclo[2.1.1]hex-1-yl)(3-hydroxyphenyl)methyl]-2-chloro-3-(trifluoromethyl)-benzamide] |
| 66 to 67 | C=CCN1CC2CC1(C(NC(=O)c1cc(Br)c(Cl)cc1N)c1ccccc1)C2 (racemic) [Compound 20, N-[(2-Allyl-2-azabicyclo[2.1.1]hex-1-yl)(phenyl)methyl]-2-amino-5-bromo-4-chloro-benzamide] |
| 241 to 242 | CCc1ccccc1C(=O)NC(c1ccccc1)C12CC(CN1CC)C2 (racemic) (as salt: HCl) [Compound 31, 2-Ethyl-N-[(2-ethyl-2-azabicyclo[2.1.1]hex-1-yl)(phenyl)methyl]benzamide] |
| 200 to 201 | Cc1c(C(F)(F)F)ccc(Cl)c1C(=O)NC(c1ccccc1)C12CC(CN1)C2 (racemic) (as salt: HCl) [Compound 32, N-[(2-Azabicyclo[2.1.1]hex-1-yl)(phenyl)methyl]-6-chloro-2-methyl-3-(trifluoromethyl)-benzamide] |
| 232 to 233 | CCS(=O)(=O)c1cc(C(=O)NC(c2ccccc2)C23CC(CN2)C3)c(OC)cc1Cl (racemic) (as salt: HCl) [Compound 15, N-[(2-Azabicyclo[2.1.1]hex-1-yl)(phenyl)methyl]-4-chloro-5-(ethanesulphonyl)-2-methoxybenzamide] |
| 178.5 to 179 | CC(C)(O)CN1CC2CC1(C(NC(=O)c1c(Cl)ccc(C(F)(F)F)c1Cl)c1ccccc1)C2 (racemic) (as salt: HCl) [Compound 22] |
